The test system of series [1] is MCF-7. The series can be described thus: Cytotoxicity assay (MTT), MCF-7. Format: cell-based, human. The settings on record: Homo sapiens, MCF7; breast cancer cell line; MTT, 48 h; mean ± S.D., 3 experiments; read-out: Cytotoxicity, IC50, MCF-7. The method, then:
(§1) MCF-7 (human breast adenocarcinoma, estrogen-positive) and 4T1 (mouse carcinoma), as breast cancer cell lines, and H9C2 (rat cardiomyoblasts), NIH 3T3 (mouse fibroblasts), HEKa (primary human epidermal keratinocytes), MDCK (Madin-Darby Canine Kidney) cells, and A7r5 (rat vascular smooth muscle cells), as normal cell lines, were obtained from the American Type Culture Collection [ATCC] collection for use in the current study. All cell lines were cultured in Dulbecco's modified Eagle's medium (DMEM) containing 10% fetal bovine serum (FBS) and 4 mM L-glutamine at 37 °C and 5% CO2.
(§2) Cell viability was assessed by the addition of 3-(4,5-dimethylthiazol-2-yl)-2,5-diphenyltetrazolinium bromide (MTT). Briefly, cells were seeded (2–6 × 10^4 cells/ml) in 96-well plates and allowed to attach for 24 h. Solutions of test compounds were prepared and serially diluted to obtain the appropriate concentrations. The cells were treated with the test compounds at different concentrations (0.032–100 µM) and incubated for 48 h at 37 °C and 5% CO2. Then, the culture medium was removed, and medium containing 0.2 mg/ml MTT was added. After 3 h (37 °C, 5% CO2), the MTT-containing medium was removed, and 200 μl of dimethyl sulfoxide (DMSO) was immediately added to each sample. The absorbance was assessed at 540 nm using a Tecan multiplate reader Infinite 1000 (Austria). The half-maximal inhibitory concentration (IC50) of each compound was calculated using Graph Pad Prism 3.0.

The subject of series [2] is 4T1. Put plainly: Cytotoxicity assay (MTT), 4T1. It is filed as cell-based, mouse. The method, then:
as §1, §2

A short description of series [3]: Cytotoxicity assay (MTT), H9C2. It is filed as cell-based, rat. The note with it: rat, H9C2 cells (cardiomyoblasts); normal cell line; MTT, 48 h; mean ± S.D., 3 experiments. The method, then:
as §1, §2

Series [4] in a line: Cytotoxicity assay (MTT), 3T3. The note with it: mouse, NIH 3T3 cells (fibroblasts), normal cell line, mean ± S.D., 3 experiments. Format: cell-based, mouse. The method, then: as §1, §2
The nature of series [5]: Cytotoxicity assay (MTT), HEKa. It is filed as cell-based, human. The settings on record: human, HEKa cells (primary epidermal keratinocytes), normal cell line, mean ± S.D., 3 experiments. The method, then: as §1, §2
Series [6] in a line: Cytotoxicity assay (MTT), MDCK. Format: cell-based, Canine. The note with it: dog, MDCK cells, normal cell line, mean ± S.D., 3 experiments. The method, then: as §1, §2
Series [7] can be described thus: Cytotoxicity assay (MTT), A7r5. The note with it: rat, A7r5 cells (vascular smooth muscle cells), normal cell line, mean ± S.D., 3 experiments. Format: cell-based, rat. The method, then: as §1, §2
The subject of series [8] is MCF-7 cells. The series can be described thus: Fluorometric measurement of NMN level. The note with it: 2 μM, 10 min, vs control. Format: cell-based, human. The method, then: For fluorometric measurements of NMN, a previously described method was used, with minor modifications. […] The cells were washed with PBS and then lysed by adding 200 μl of 1 M HClO4 to each well and incubating at 4 °C for 20 min. The cells were harvested by scraping and transferred to a tube. The extracts were neutralized with 100 μl of 2 M KOH for 5 min at room temperature and 50 μl of 0.1 M bicine (pH 7.4) was added. The samples were centrifuged at 14 000 × g for 10 min at 4 °C, and the supernatant was collected for further analysis. The protein concentration in each sample was determined using a Bio-Rad protein assay kit. […] The reaction was incubated for 2 min at 4 °C, after which 45 μl of 88% formic acid was added, and the samples were incubated for another 10 min at 37 °C on a shaker. The fluorescence was measured using a Tecan multiplate reader Infinite 1000 (Austria) with excitation at 382 nm and emission at […].

The test system of series [9] is MCF-7 cells. Put plainly: NAD+/NADH assay kit measurement. It is filed as cell-based, human. The note with it: 2 μM, 10 min, vs control. The method, then: The NAD^+/NADH ratio in the MCF-7 cells exposed to the test compounds (2 μM) for 10 min was measured using an NAD^+/NADH assay kit (Abcam, ab65348) according to the manufacturer's instructions.
Series [10] concerns the target T1, NAMPT (Homo sapiens, UniProt P43490).
T1 construct: endogenous in cells; host or cells: MCF-7
The series can be described thus: NAMPT activity assay in lysates of treated cells. It is filed as cell-based. The note with it: MCF-7 cells, 2 µM, 4 h. The method, then:
MCF-7 cells (5 × 10^6 cells per well) were grown in a 6-well plate and then incubated with the test compounds (2 µM) for 4 h. The cells were harvested by scraping, washed with PBS and lysed with 50 mM Tris–HCl (pH 7.5), 150 mM NaCl, 1 mM DTT, 1 mM PMSF, 0.002 mg/ml leupeptin and pepstatin (2 × 10^6 cells in 100 µl buffer solution). After three freeze–thaw cycles at -80 °C, the cell extract was centrifuged at 15 000 × g for 30 min at 4 °C. The supernatant was collected, and the protein concentrations were determined using a Bio-Rad protein assay kit. The NAMPT enzyme reaction was performed as described previously. The enzymatic reaction mixture contained 50 mM Tris–HCl buffer (pH 7.5), 12 mM MgCl2, 2 mM DTT, 0.02% BSA, 2.5 mM ATP, 0.8 mM PRPP, and 50 μM nicotinamide. […] The concentrations of the NAMPT reaction product, nicotinamide mononucleotide (NMN), in the samples were determined using a described method. […] The fluorescence was measured using a Tecan multiplate reader Infinite 1000 (Austria) with excitation at 382 nm and emission at 445 nm. The NMN concentrations in the reaction mixtures were determined by comparison with NMN standards in the range of 0.16–20 μM. The NAMPT activity in the cell lysates is expressed as the concentration of NMN in μmol per mg protein per hour based on standard NMN readings.

Series [11] has as its system permeabilized 4T1 cells. The series can be described thus: High-resolution fluorespirometry (respiration and H2O2 flux). Format: cell-based, mouse. The method, then: High-resolution fluorespirometry was performed using an Oxygraph-2 k system (OROBOROS INSTRUMENTS, Austria). All experiments were performed at 37 °C in MiR05 medium (110 mM sucrose, 60 mM K-lactobionate, 0.5 mM EGTA, 3 mM MgCl2, 20 mM taurine, 10 mM KH2PO4, 20 mM HEPES, pH 7.1 at 30 °C, and 0.1% BSA essentially fatty acid free). The medium was reoxygenated when the oxygen concentration dropped to 80 µM. H2O2 flux was simultaneously measured with respirometry in the O2k-Fluorometer using the H2O2-sensitive probe Ampliflu Red (AmR) as described. The H2O2/O flux ratio [%] was calculated as the H2O2 flux/(0.5 O2 flux).
In permeabilized 4T1 cells, pyruvate + malate (5 and 2 mM) or glutamate + malate (10 and 2 mM) were used to determine complex I (CI)-linked LEAK (L) respiration. ADP was added to a concentration of 5 mM to determine the oxidative phosphorylation-dependent respiration (OXPHOS state). Succinate (10 mM, complex II (CII) substrate) was then added to reconstitute convergent CI&II-linked respiration. Rotenone (0.5 µM, an inhibitor of complex I) and antimycin A (2.5 µM, an inhibitor of complex III) were added to determine the CII-linked OXPHOS capacity and residual oxygen consumption (ROX), respectively. Compound 6 was added to permeabilized cells after the addition of the respective substrates in the OXPHOS state (titration experiment) or in the LEAK state. In addition, compounds 3, 6 and 7 were tested at 1 µM in the OXPHOS coupling protocol in the LEAK state. The OXPHOS coupling efficiency was calculated as: 1-Resp.rateLEAKstate/Resp.rateOXPHOSstate
The substrate-dependent flux control factor was calculated as: 1-Resp.ratebeforeadditionofrespectivesubstrate/Resp.rateafteradditionofrespectivesubstrate

[12] abbreviates: 1 µM, pyruvate-dependent OXPHOS state.
Setting [13] is: titration, pyruvate + malate and glutamate + malate, OXPHOS.

T1 sequence (P43490 whole entry): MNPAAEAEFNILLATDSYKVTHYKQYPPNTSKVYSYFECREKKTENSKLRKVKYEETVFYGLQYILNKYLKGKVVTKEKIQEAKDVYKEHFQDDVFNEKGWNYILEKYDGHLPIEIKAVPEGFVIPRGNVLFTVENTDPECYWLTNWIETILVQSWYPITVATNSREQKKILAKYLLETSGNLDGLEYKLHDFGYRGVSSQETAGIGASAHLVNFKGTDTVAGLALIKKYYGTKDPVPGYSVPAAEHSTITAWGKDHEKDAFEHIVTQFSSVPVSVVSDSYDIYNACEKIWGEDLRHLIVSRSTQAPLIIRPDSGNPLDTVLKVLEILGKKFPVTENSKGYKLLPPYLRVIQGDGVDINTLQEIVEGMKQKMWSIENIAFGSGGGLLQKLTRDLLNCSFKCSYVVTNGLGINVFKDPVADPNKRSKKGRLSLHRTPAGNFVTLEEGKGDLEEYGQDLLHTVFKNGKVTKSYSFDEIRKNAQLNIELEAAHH

The term IC50 denotes the concentration needed to halve the response being measured. On to `OC1(c2[se][n+]3ccccc3c2Br)CCCCC1.[Cl-]` [Compound 3, 3-bromo-2-(1-hydroxycyclohexyl)-[1,2]selenazolo[2,3-a]pyridinium chloride], for which the IC50 amounted to 500 ± 20 nM in [1] and 44 ± 5 nM in series [2] (Mus musculus, 4T1, breast cancer cell line, MTT, 48 h, mean ± S.D., 3 experiments, read-out: Cytotoxicity, IC50, 4T1). For the same compound, the “selectivity towards tumor cell lines” value in series [2] (comparing 4T1 to A7r5) was greater than 42 fold. Also, the IC50 at 48 h was 2200 ± 100 nM in series [3]; 390 ± 50 nM in series [4]; 2210 ± 20 nM in series [5]; 2910 ± 130 nM in [6]; 1850 ± 220 nM in series [7]. The “decrease in NMN levels” value in [8] is 33%. In addition, the “decrease in NAD+ level” value in series [9] came out at 59%. Moreover, in series [9], the “decrease in NAD+/NADH ratio” value turned out to be 38%. In addition, the “decrease in NADH level” value in series [9] is recorded as 33%. Besides, the “reduction in NAMPT activity” value in series [10] was “slight decreases”. For the same compound, the OXPHOS coupling efficiency result in series [11] (1 µM) is reported as “significant decrease”. Moreover, the “increase in H2O2/O ratio” value in series [11] (setting [12]) was “immediate significant increases”. Further, the “increase in H2O2 production” value in series [11] (setting [12]) was “immediate significant increases”. Moreover, in series [11] (titration), the “mitochondrial function in the CII-linked OXPHOS state” value is “no significant changes”. Besides, in [11] (setting [13]), the “H2O2 production with complex I (NADH-linked) substrates” value was “increased”. The “mitochondrial respiration rate with complex I (NADH-linked) substrates” value in [11] (setting [13]) is on record as “inhibited”.

These data come from article PMC7725824, “Fused isoselenazolium salts suppress breast cancer cell growth by dramatic increase in pyruvate-dependent mitochondrial ROS production” (Scientific Reports, 2020).
